Results from a melting point compilation (Tetko et al.; mined from patent text by program, amines drawn as free bases though some values may be those of a salt).
Residues, ends and D or L forms follow the SMILES beside them. *: point of attachment. Boc = CC(C)(C)OC(=O)*; OBn = c1ccc(CO*)cc1; Bn = c1ccc(C*)cc1

SMILES	melting point [°C]
CC1OC(=O)N(c2nc(-c3ccc(C#N)cc3)cs2)C1(C)C (stereo not given)	166 to 167
COc1ccc(Cc2cnc(NCCSCc3nc[nH]c3C)[nH]c2=O)cn1	197 to 198
COCC(=O)Nc1cccc2c1C1(COc3cc4c(cc31)OCCO4)C(=O)N2C (stereo not given)	237 to 239
Cc1ccc(S(=O)(=S)OCC2CC2)cc1 (stereo not given)	46 to 48
C[C@H](c1ccc(F)cc1)N1CCN(c2cc(Oc3cccc4ncc(N)nc34)ncn2)CC1	118
COc1cc(OC)nc(Oc2cccc(F)c2C(=O)O)n1	133 to 134
Cc1nc2c(N)nc3cccnc3c2n1CC1(O)CCNCC1	> 260
CCN(C(=O)C1CC1)c1cccc(-c2ccnc3c(C(=O)c4ccccc4)cnn23)c1	153 to 155
CCCCCCCCCCCCCCCC(=O)Nc1nc(=O)n(C2OC(C)C(O)C2O)cc1F (stereo not given)	93 to 95
Cc1ccccc1CCc1c(C(C)C)nc(C(C)C)c(CO)c1-c1ccc(F)cc1	125 to 126
O=c1[nH]cnc2c(Br)c(Cl)sc12	> 280
O=C(O)c1cccc(-c2cccc3oc(Cc4cccc(C(F)(F)F)c4)nc23)c1	165 to 166
COc1ccncc1-c1nc2c(N[C@H]3[C@@H](C(N)=O)[C@@H]4C=C[C@H]3C4)c(Br)cnc2[nH]1	160
CN1OCC(=O)N(c2ccc(Oc3ccccc3)cc2)C1=S	159 to 160
COc1ccc2c(c1)C(O)c1cc(CO)ccc1O2 (stereo not given)	142 to 143
CC(=O)SCCC(=O)N1c2ccc(C)cc2CCC1C(=O)O (stereo not given)	118 to 120
Cc1c(C)c2c(c(C)c1O)CCC(C)(C1N[C@H](C(=O)O)CS1)O2 (stereo not given in full)	184 to 186
COc1cc2ncnc(N3CCN(C(=S)Nc4ccc(CNC(=O)OC(C)(C)C)cc4)CC3)c2cc1OC	123 to 126
Cc1ccc2c(NCc3ccc(NC(=O)c4ccc(C)nc4)cc3)nc(Cl)nc2c1	257 to 259
Cc1cccc2nc3c(nc12)C=CCC3=O	133 to 135
CS(=O)(=O)OC(c1ccc(C(OS(C)(=O)=O)(C(F)(F)F)C(F)(F)F)cc1)(C(F)(F)F)C(F)(F)F	151
COc1ccc(C(=O)Nc2cccc(Cl)c2)cc1NC(=S)Nc1ccc(F)cc1	184 to 185
O=C1c2c(O)ccc(O)c2-c2nn(CCCNCCO)c3ccc(NCCNCCO)c1c23	159 to 163
CNC(=O)C1CN(CC(=O)Nc2c(Cl)cc(Cl)cc2Cl)CCN1 (stereo not given)	169
CCc1c(-c2ccccc2)c2c(COCCN3CCCCC3)cc3c(O)ccc1n32	196 to 198

SMILES	melting point [°C]
O=c1cc[nH]n1-c1c(Cl)cc(C(F)(F)F)cc1Cl	228
CCOc1c(C(=O)O)oc2c3ccccc3n(-c3ccccc3)c12	146 to 147
CSc1ncc(O)c(O)n1	213 to 215
CN(Cc1ccccc1)C1c2ccccc2CC1O (stereo not given)	64
O=C1N[C@H]2OC(c3ccccc3)=N[C@@H]12	159
CCOc1ccc(C2=NN(C3CCN(S(=O)(=O)c4ccc(C)cc4)CC3)C(=O)[C@@H]3CC=CC[C@H]23)cc1OCC	99 to 101
CCCCC(NC(=O)C(CC(C)C)NC(=O)COc1ccc2ccccc2c1)C(=O)CSCc1ccco1 (stereo not given)	87 to 89
CCCCCCCCCCCCCCCCCC(=O)ON1C(C)(C)CC(OC(=O)c2ccccc2)CC1(C)C	85 to 89
Nc1nc2c(s1)CCN(CC=Cc1ccc3ccccc3c1)CC2	164 to 165
C=CCOc1ccc(C(=C)C)cc1	22 to 23
O=C(NC(Cc1ccc(OCc2ccc(Cl)cc2)cc1)C(=O)O)c1cn2ccc(-c3ccc(Cl)cc3)cc2n1 (stereo not given)	261
CCCn1nc2c(N)nc3ccccc3c2c1CCCCS(=O)(=O)N(C)C	144 to 146
CSc1cc(C)nc(SC)c1NC(=O)CC=CC1=C(c2ccccc2)c2ccccc2OC1	204 to 206
CCCCCCSC1=CC(=O)NC1=O	99 to 101
COc1ccnc2c1C(=O)c1c(-c3ccccc3NC(=O)C(F)(F)F)ccnc1C2=O	158
O=P1(c2ccc(C(F)(F)F)cc2)c2ccccc2CN1c1ccccc1 (stereo not given)	187 to 189
COC(=O)C1=C(C)Nc2n[nH]cc2C1c1ccccc1Cl (stereo not given)	235
N#CC1Cc2cc3c(cc21)NCC3 (stereo not given)	85 to 87
CCNC(=O)c1c(-c2ccccc2)cccc1[Si](C)(C)C	159 to 160
Fc1ccc(CNc2ccc(-n3nc(C(F)(F)F)cc3C(F)(F)F)cc2)cc1	92 to 94
C[Si](C)(C)c1cc(Cl)sc1C(=O)NCCCl	68 to 72
C#Cc1ccc(C(=C2CC(C)(C)CC(C)(C)C2)c2ccc(O)cc2)cc1	138 to 139
Cc1ccccc1Cn1c(=O)[nH]c2cc(Cl)cc(Cl)c2c1=O	274 to 276
COc1c(NC(=O)CC(C)(C)C)c(C)c(C)c2c1C(c1ccc(C(C)C)cc1)CO2 (stereo not given)	161 to 162
Cn1cc(C(=O)NCc2ccc(Cl)cc2)c(=O)c2cc(CN3CCOCC3)cc(C#Cc3ccccn3)c21	234 to 236

SMILES	melting point [°C]
CCC(C1CCCC1)C(O)(c1ccc(O)cc1)c1ccc(OCCN(C)C)cc1 (stereo not given)	112 to 120
CN1CC(CCN2CCN(c3ccccn3)CC2)OC1=O (stereo not given)	108 to 109
c1c(N2CCNCC2)nc(N2CCC3(CC2)OCCO3)nc1N1CCC2(CC1)OCCO2	130 to 140
COc1ccc(-c2c(Cl)c(COc3ccccn3)nc3sc4c(c23)CCN(Cc2ccccc2)C4)cc1OC	165 to 167
C=C1CCC2C3CC(=O)C4=CC(=O)CCC4(C)C3CCC12C (stereo not given)	113 to 115
Cn1c(=O)n(CC2(C)Cn3cc([N+](=O)[O-])nc3O2)c2ccccc21 (stereo not given)	203 to 204
Clc1cccc(C(Cl)Cl)n1	48 to 52
C=CCOc1ccc(C(C)(C)C)cc1C(C(=O)O)c1ccccc1 (stereo not given)	120 to 122
CCn1ncc2c3noc(-c4cccc(OC)c4)c3cnc21	170 to 171
O=c1c2c(Cc3ccccc3[N+](=O)[O-])n[nH]c2c2cccnc2n1-c1cccc(C(F)(F)F)c1	282 to 284
CCCCc1oc2ccccc2c1C(=O)c1ccc(O)cc1	119
Cc1nn(C)c(NCC(C)(C)C)c1NCc1ccc(F)cc1	32 to 39
CC(=O)C(=Cc1ccc2c(c1)OCO2)C(C)=O	79 to 80
Oc1ccc(-n2nnnc2C2CC2)cc1	184
CCNC1CCN(c2c(F)c(N)c3c(=O)c(C(=O)O)cn(C4CC4)c3c2OC)CC1C (stereo not given)	230 to 232
O=C1CCC(c2ccc3[nH]c(-c4ccsc4)cc3c2)=NN1	325 to 333
O=C(O)c1ccc(OC(F)(F)F)c(OC2CCCC2)c1	116 to 118
OCc1cnc2c(F)cccc2c1O	176 to 178
Cc1cccc(C)c1NC(=O)CCSc1cc(C(C)(C)C)c(O)c(C(C)(C)C)c1	142 to 144
CSc1sc(-c2nnn(C)n2)c2c1C(=O)CC(C)(C)C2	233 to 235
Nc1nccc(Oc2ccc3c(c2)CCCN3)n1	180 to 182
N#Cc1ccc2c(c1)S(=O)(=O)c1ccc(N)cc1C=C2	321 to 324
Cc1occc1COC(C)CN(O)C(N)=O (stereo not given)	101 to 102
CC1(C)COC(=O)N1Cc1ccccc1[N+](=O)[O-]	103 to 106
Cc1c(C(=O)c2sc(Nc3ccc(S(N)(=O)=O)cc3)nc2N)ncn1C	293 to 294

SMILES	melting point [°C]
COc1cc(OC)c2c(=O)[nH]c(-c3ccc(OC4CCN(C(=O)N(C)C)CC4)cc3)nc2c1	248 to 249
CCCNc1nc(=O)n(CC2CC2)c2nc(C(C)C)[nH]c12	208 to 210
COC(=O)C1(O)CN2CCC1CC2 (stereo not given)	122
O=C(N[C@H]1CCC(=O)N2CCC[C@@H](C(=O)O)N2C1=O)OCc1ccccc1	60 to 100
COc1ccc(CN(C(=O)C2CCCc3c(O)cccc32)c2ccc(C(C)C)cc2)cn1 (stereo not given)	158
FC(F)c1nc2ccccc2n1-c1nc(NCc2cccnc2)nc(N2CCOCC2)n1	160 to 161
NC1Cc2cccc3[nH]c(=O)n(c23)C1 (stereo not given)	> 300
COc1cc(C(=O)CCCN2CCC(OC(=O)c3cc(Cl)c(N)c4c3OC(C)(C)C4)CC2)cc(OC)c1OC	154
CCCCCCCNC(=O)N(C)c1cccc(-c2ccc(CCC(=O)O)cc2OCCC(C)C)c1	60 to 62
CCCCNC(=O)Nc1c(N)cccc1C(=O)NCC1CCN(C(c2ccccc2)c2ccccc2)CC1	212 to 213
CC(C)(Cl)CC1NC(=O)c2ccccc21 (stereo not given)	153 to 155
Clc1ccccc1C(Cl)(c1ccccc1)c1ccccc1	131
COc1cc(OC)c2c(=O)cc(-c3cccc(C)c3)oc2c1C1=CCN(C)CC1	109 to 110
COc1cc(OC)nc(NC(=O)NS(=O)(=O)c2c(C(=O)C3CC3)cnn2C)n1	189 to 192
CC(=O)Oc1ccccc1C(=O)N1CC(O)C[C@H]1C(=O)O (stereo not given in full)	175
CN1C(=O)C(C(=O)NCC2CCC(C(=O)O)CC2)S(=O)(=O)c2ccccc21 (stereo not given)	203 to 204
Cc1nc(C(=O)NCCO[N+](=O)[O-])c(C)s1	114 to 116
CCCCCCCCCCc1cnc(-c2ccc(OCC(C)(C#N)CCCC)cc2)nc1 (stereo not given)	43
N#Cc1ccc(C(O)CCN2CC=C(c3ccc(Cl)cc3)CC2)cc1 (stereo not given)	117 to 118
COc1ccc(F)c2c(OC)c(C=O)ccc12	129 to 131
O=C1Cc2c(OCCNCc3ccccc3)ccc(Cl)c2N1	161 to 163
CCc1nn(CO)c(CC)c1Cc1cc(Cl)cc(Cl)c1	117 to 118
CC1CCCN1CCCOc1ccc(-c2ccc(S(=O)Cc3ccccc3)nn2)cc1 (stereo not given)	145
CC(C)CC(NC(=O)C(Cc1ccc(OCc2ccccc2)cc1)NC(=O)OC(C)(C)C)C(=O)NCC(=O)OCc1ccccc1 (stereo not drawn) (Boc-Tyr(Bn)-Leu-Gly-OBn; configuration not given here)	114 to 116
COc1cccc(C=C2CCc3c2nc2ccc(C(=O)O)cn2c3=O)c1	310 to 312
